e = 2'-O-(2-methoxyethyl) (MOE); d = 2'-deoxy (DNA)
Experiments:
[1] = tested on: U2OS cells (osteosarcoma); experiment: U2OS cells treated with PMO, cisplatin followed by Go6976 (FIG. 5); format: cell-based; conditions: PMO 3 uM 2 h; for enhancement of sensitivity to cisplatin: Cis 5 uM 24 h
Experimental: FIG. 5 is a graph showing the results obtained with U2OS cells treated with PMO (3 uM, 2 h), Cis (5 uM, 24 h) followed by Go6976 (100 nM, 24 h).
(§1) In further studies, additional agents were tested in conjunction with p53 morpholinos. […] We also tested these agents on U2OS cells (osteosarcoma). Again a dramatic effect on cell cycle that is dependent on PMOs and Go is observed. PMOs give a 3-fold enhancement of drug sensitivity in the caspase 3 assay. We also assessed U2OS cells treated with PMOs (p53-A and p53-B) +/−cisplatin+/−Go6976.

[2] = tested on: U2OS cells (osteosarcoma); experiment: U2OS cells treated with PMO, Dox followed by Go6976: cell cycle and caspase 3 assay (FIG. 4); format: cell-based; conditions: PMO 3 uM 2 h, Dox 200 ng/ml 24 h, +/- Go6976 100 nM 24 h
Experimental: FIG. 4 is a graph showing the results obtained with U2OS cells treated with PMO (3 uM, 2 h), Dox (200 ng/ml, 24 h) followed by Go6976 (100 nM, 24 h).
as §1

[3] = tested on: clusterin; conditions: cited from earlier work

Cn1c2ccccc2c2c3c(c4c5ccccc5n(CCC#N)c4c21)CNC3=O [Go6976]
effect of Go6976 on the PMO enhancement of cisplatin sensitivity ([1]; Cis 5 uM 24 h followed by Go6976 100 nM 24 h): potentiates this enhancement

PMO A: p53 morpholino (PMO) with sequence corresponding to Seq Id 136 (NU(4)p53); (RX)8B CPP used in in vitro testing (CCATGGCAGTGACCCGGAAGGC; all phosphorodiamidate morpholino (PMO); (RX)8B cell-penetrating peptide conjugated, position not given here)
enhancement of sensitivity to cisplatin [1]: about 3 fold | enhancement of drug sensitivity in the caspase 3 assay [2]: 3 fold

PMO B: p53 morpholino (PMO) with sequence corresponding to Seq Id 140 (NU(7)p53); (RX)8B CPP used in in vitro testing (GCATCAAATCATCCATTGCTTG; all phosphorodiamidate morpholino (PMO); (RX)8B cell-penetrating peptide conjugated, position not given here)
enhancement of sensitivity to cisplatin [1]: about 3 fold | enhancement of drug sensitivity in the caspase 3 assay [2]: 3 fold

SEQ ID NO: 3: clusterin antisense oligo 5′-CAGCAGCAGAGTC TTCATCAT-3′, all phosphorothioate, terminal four nucleosides each end 2′-O-methyoxyethyl (CAGCAGCAGAGTCTTCATCAT; sugars from the 5' end e4 d13 e4, all phosphorothioate, methylation of C not given here)
sensitization of cancer cells to radiation and chemotherapeutic agents ([3]; cancer cells including prostate cancer cells): modestly sensitize some cancer cells | suppressive activity on clusterin expression [3]: relatively poor suppressive activity | effect on induction of apoptosis ([3]; some cancer cells, including those deficient in p21 (WAF-1) expression): can inhibit the induction of apoptosis in some cancer cells

Reference: patent US20150010502A1, “Compositions and Methods for Suppressing Gene Expression of p53 and Clusterin” (priority 2011, published 2015)
